For one series, the system named is xanthine oxidase. The following applies: previous studies; cited from earlier work.
The subject of series [1] is DNA in midbrain and striatum of C57BL/6 mice. Briefly: Fluorimetric assay of DNA fragmentation in MPTP treated mice (Table 7). It counts as in vivo, mouse (C57BL/6). The following applies: for DNA damage, MIDBRAIN: MPTP 25 mg/kg ip twice, mean ± S.D. From the text:
A fifth group was the control. Brains were removed and the midbrain and striatum isolated.

The test system of series [2] is dopaminergic neurons in the midbrain. Briefly: Apoptosis in MPTP treated mice (In Situ Apoptosis Detection Kit, tyrosine hydroxylase staining). It counts as in vivo, mouse (C57BL/6). Conditions: MPTP 25 mg/kg ip twice; 48 hours.
Protocol: After 48 hours the mice were perfused through the left ventricle with phosphate buffered saline (PBS) and then with 4% formaldehyde and 0.2% glutaraldehyde in PBS. The brains were coronally sliced into 50μ sections in a vibrating microtome.
To detect individual cells undergoing apoptosis, the In Situ Apoptosis Detection Kit (Oncor) was used. In this method, the fragmented DNA ends are extended with digoxigenin-dUTP. An anti-digoxigenin antibody then binds to the extension and is detected by a peroxidase reaction as previously described.
Tyrosine hydroxylase staining was done to identify dopaminergic neurons in the substantia nigra. The IgG polyclonal antibodies used were: a rabbit antibody to tyrosine hydroxylase; a sheep antibody to rabbit IgG and a rabbit antibody to horseradish peroxidase with the horseradish peroxidase coupled to the antibody^22. The tyrosine hydroxylase-stained brain slices were mounted on glass slides, dehydrated and coverslipped with balsam.
Series [3] has as its system superoxide radicals produced by xanthine oxidase. The experiment in a line: Quenching of superoxide radicals (EPR). Conditions: 0.1M nicotinamide. On the procedure: (§1) EPR spectra were measured at 23° and 100 kHz in a Bruker model ECS 106 spectrometer (Bruker, Karlsruhe, Germany). The EPR conditions were: modulation amplitude 0.483G, microwave power 20 mW and time constant 1.3 seconds.

Series [4] has as its system hydroxyl radicals generated by the addition of 0.4M hydrogen peroxide. Briefly: Quenching of hydroxyl radicals (EPR). Conditions: 0.1M nicotinamide. On the procedure: as §1
Series [5] deals with poly(ADP-ribose) polymerase (PADPRP). The following applies: cited from earlier work.
The subject of another series is ATP. The following applies: known effect of nicotinamide; cited from earlier work.
Another series has as its system 24 month old mice. The following applies: mouse, in vivo, 500 mg/kg.

Entries after “also recorded” stand apart in the source; their conditions may differ.

These results are taken from patent publication US5736529A, “Use of NAD-related compounds in the treatment of neural trauma to inhibit neurodegeneration” (priority 1996, dated 1998).

Consider `C[n+]1ccc(-c2ccccc2)cc1` [MPP+], for which the “substrate for xanthine oxidase” value with xanthine oxidase is on record as “can act as a substrate for xanthine oxidase”.
For `CN1CC=C(c2ccccc2)CC1` [MPTP, 1-methyl-4-phenyl-1,2,3,6-tetrahydropyridine], in series [1] (25 mg/kg MPTP twice, 48 hours, p<0.05), the “DNA fragmentation in the midbrain” value is reported as “Significant DNA fragmentation”. In addition, the “DNA damage, MIDBRAIN” value in series [1] (2 hours) is given as 0.9108 ± 0.2233 per gram of tissue; in series [1] (48 hours, * p<0.05 vs control), 1.6373 ± 0.4567 per gram of tissue. For the same compound, the “apoptotic cells in dopaminergic neurons in the midbrain” value in series [2] is “Apoptotic cells with shrunken and fragmented nuclei were detected”.
On to `NC(=O)c1cccnc1` [nicotinamide], for which, in series [3], the “quenching of superoxide radicals” value is “able to quench superoxide radicals”. Further, in series [4], the “quenching of hydroxyl radicals” value is reported as “able to quench hydroxyl radicals”. For the same compound, in series [5], the “inhibition of poly(ADP-ribose) polymerase” value was “inhibits poly(ADP-ribose) polymerase; also recorded: weak inhibitor”. The ATP levels entry with ATP was “elevate NAD levels and ATP levels”. The deaths entry in the series with 24 month old mice is on record as “one out of six”.
